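Assay format: 96-well plates, 48-hour exposure. GI50 is the concentration that inhibits growth by half. At the TGI there is no net growth.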
What was measured:
Experiment in all cases: NCI tumour cell line growth inhibition, 48 h
786-0 renal = tested on: 786-0 renal
A498 renal = tested on: A498 renal
A549 NSCLC = tested on: A549 NSCLC
ACHN renal = tested on: ACHN renal
BT-549 breast = tested on: BT-549 breast
CAKI-1 renal = tested on: CAKI-1 renal
CCRF-CEM leukemia = tested on: CCRF-CEM leukemia
COLO 205 colon = tested on: COLO 205 colon
DU-145 prostate = tested on: DU-145 prostate
EKVX NSCLC = tested on: EKVX NSCLC
HCC-2998 colon = tested on: HCC-2998 colon
HCT-116 colon = tested on: HCT-116 colon
HCT-15 colon = tested on: HCT-15 colon
HOP-62 NSCLC = tested on: HOP-62 NSCLC
HOP-92 NSCLC = tested on: HOP-92 NSCLC
HS 578T breast = tested on: HS 578T breast
HT29 colon = tested on: HT29 colon
IGROV1 ovarian = tested on: IGROV1 ovarian
K-562 leukemia = tested on: K-562 leukemia
KM12 colon = tested on: KM12 colon
LOX IMVI melanoma = tested on: LOX IMVI melanoma
M14 melanoma = tested on: M14 melanoma
MALME-3M melanoma = tested on: MALME-3M melanoma
MCF7 breast = tested on: MCF7 breast
MDA-MB-231 breast = tested on: MDA-MB-231 breast
MDA-MB-435 = tested on: MDA-MB-435
MDA-MB-468 breast = tested on: MDA-MB-468 breast
NCI-H226 lung = tested on: NCI-H226 lung
NCI-H23 lung = tested on: NCI-H23 lung
NCI-H460 lung = tested on: NCI-H460 lung
NCI-H522 lung = tested on: NCI-H522 lung
OVCAR-3 ovarian = tested on: OVCAR-3 ovarian
OVCAR-4 ovarian = tested on: OVCAR-4 ovarian
OVCAR-5 ovarian = tested on: OVCAR-5 ovarian
OVCAR-8 ovarian = tested on: OVCAR-8 ovarian
PC-3 prostate = tested on: PC-3 prostate
RPMI-8226 leukemia = tested on: RPMI-8226 leukemia
RXF 393 renal = tested on: RXF 393 renal
SF-268 CNS = tested on: SF-268 CNS
SF-295 CNS = tested on: SF-295 CNS
SF-539 CNS = tested on: SF-539 CNS
SK-MEL-2 melanoma = tested on: SK-MEL-2 melanoma
SK-MEL-28 melanoma = tested on: SK-MEL-28 melanoma
SK-MEL-5 melanoma = tested on: SK-MEL-5 melanoma
SK-OV-3 ovarian = tested on: SK-OV-3 ovarian
SN12C renal = tested on: SN12C renal
SNB-19 CNS = tested on: SNB-19 CNS
SNB-75 CNS = tested on: SNB-75 CNS
SW-620 colon = tested on: SW-620 colon
T-47D breast = tested on: T-47D breast
TK-10 renal = tested on: TK-10 renal
U251 CNS = tested on: U251 CNS
UACC-257 melanoma = tested on: UACC-257 melanoma
UACC-62 melanoma = tested on: UACC-62 melanoma
UO-31 renal = tested on: UO-31 renal

Question: How did the GI50 (786-0 renal) turn out when O=C(N/N=C/c1ccc(-c2ccc(O)cc2)s1)c1[nH]c2ccc(Br)cc2c1-c1ccccc1 was run?
Answer: 2.16 µM

Question: And the TGI (786-0 renal)?
Answer: 9.19 µM

Question: And the GI50 (A498 renal)?
Answer: 5.57 µM

Question: And the TGI (A498 renal)?
Answer: 18.9 µM

Question: What about the GI50 (A549 NSCLC) of the same compound?
Answer: 4.28 µM

Question: What about the TGI (A549 NSCLC) of the same compound?
Answer: 17.7 µM

Question: What about the GI50 (ACHN renal) of the same compound?
Answer: 2.92 µM

Question: And the TGI (ACHN renal)?
Answer: 10.9 µM

Question: And the GI50 (BT-549 breast)?
Answer: 2.95 µM

Question: What about the TGI (BT-549 breast) of the same compound?
Answer: 9.97 µM

Question: What about the GI50 (CAKI-1 renal) of the same compound?
Answer: 3.46 µM

Question: And the TGI (CAKI-1 renal)?
Answer: 13.8 µM

Question: And the GI50 (CCRF-CEM leukemia)?
Answer: 2.46 µM

Question: And the TGI (CCRF-CEM leukemia)?
Answer: > 100 µM

Question: And the GI50 (COLO 205 colon)?
Answer: 7.12 µM

Question: And the TGI (COLO 205 colon)?
Answer: 23 µM

Question: And the GI50 (DU-145 prostate)?
Answer: 4.48 µM

Question: What about the TGI (DU-145 prostate) of the same compound?
Answer: 15.7 µM

Question: What about the GI50 (EKVX NSCLC) of the same compound?
Answer: 4.04 µM

Question: What about the TGI (EKVX NSCLC) of the same compound?
Answer: 14.8 µM

Question: What about the GI50 (HCC-2998 colon) of the same compound?
Answer: 3.16 µM

Question: And the TGI (HCC-2998 colon)?
Answer: 10.6 µM

Question: And the GI50 (HCT-116 colon)?
Answer: 3.09 µM

Question: And the TGI (HCT-116 colon)?
Answer: 11.7 µM

Question: What about the GI50 (HCT-15 colon) of the same compound?
Answer: 2.72 µM

Question: And the TGI (HCT-15 colon)?
Answer: 10.6 µM

Question: What about the GI50 (HOP-62 NSCLC) of the same compound?
Answer: 6.32 µM

Question: What about the TGI (HOP-62 NSCLC) of the same compound?
Answer: 23.6 µM

Question: What about the GI50 (HOP-92 NSCLC) of the same compound?
Answer: 2.98 µM

Question: And the TGI (HOP-92 NSCLC)?
Answer: 9.12 µM

Question: What about the GI50 (HS 578T breast) of the same compound?
Answer: 3.02 µM

Question: What about the TGI (HS 578T breast) of the same compound?
Answer: 14.1 µM

Question: What about the GI50 (HT29 colon) of the same compound?
Answer: 2.3 µM

Question: And the TGI (HT29 colon)?
Answer: 5.36 µM

Question: And the GI50 (IGROV1 ovarian)?
Answer: 3.45 µM

Question: What about the TGI (IGROV1 ovarian) of the same compound?
Answer: 12.9 µM

Question: What about the GI50 (K-562 leukemia) of the same compound?
Answer: 2.95 µM

Question: And the TGI (K-562 leukemia)?
Answer: > 100 µM

Question: And the GI50 (KM12 colon)?
Answer: 2.77 µM

Question: What about the TGI (KM12 colon) of the same compound?
Answer: 9.53 µM

Question: What about the GI50 (LOX IMVI melanoma) of the same compound?
Answer: 2 µM

Question: And the TGI (LOX IMVI melanoma)?
Answer: 5.51 µM

Question: And the GI50 (M14 melanoma)?
Answer: 2.75 µM

Question: What about the TGI (M14 melanoma) of the same compound?
Answer: 10.5 µM

Question: And the GI50 (MALME-3M melanoma)?
Answer: 2.41 µM

Question: And the TGI (MALME-3M melanoma)?
Answer: 9.77 µM

Question: What about the GI50 (MCF7 breast) of the same compound?
Answer: 2.57 µM

Question: What about the TGI (MCF7 breast) of the same compound?
Answer: 10.9 µM

Question: And the GI50 (MDA-MB-231 breast)?
Answer: 3.36 µM

Question: What about the TGI (MDA-MB-231 breast) of the same compound?
Answer: 11.5 µM

Question: What about the GI50 (MDA-MB-435) of the same compound?
Answer: 2.99 µM

Question: And the TGI (MDA-MB-435)?
Answer: 10.1 µM

Question: What about the GI50 (MDA-MB-468 breast) of the same compound?
Answer: 2.67 µM

Question: And the TGI (MDA-MB-468 breast)?
Answer: 7.57 µM

Question: What about the GI50 (NCI-H226 lung) of the same compound?
Answer: 5.63 µM

Question: What about the TGI (NCI-H226 lung) of the same compound?
Answer: 20.9 µM

Question: And the GI50 (NCI-H23 lung)?
Answer: 3.25 µM

Question: And the TGI (NCI-H23 lung)?
Answer: 11.2 µM

Question: And the GI50 (NCI-H460 lung)?
Answer: 2.72 µM

Question: What about the TGI (NCI-H460 lung) of the same compound?
Answer: 7.99 µM

Question: What about the GI50 (NCI-H522 lung) of the same compound?
Answer: 3.42 µM

Question: What about the TGI (NCI-H522 lung) of the same compound?
Answer: 14.3 µM

Question: And the GI50 (OVCAR-3 ovarian)?
Answer: 3.38 µM

Question: And the TGI (OVCAR-3 ovarian)?
Answer: 13.6 µM

Question: What about the GI50 (OVCAR-4 ovarian) of the same compound?
Answer: 3.52 µM

Question: What about the TGI (OVCAR-4 ovarian) of the same compound?
Answer: 14.1 µM

Question: What about the GI50 (OVCAR-5 ovarian) of the same compound?
Answer: 5.15 µM

Question: What about the TGI (OVCAR-5 ovarian) of the same compound?
Answer: 17.2 µM

Question: What about the GI50 (OVCAR-8 ovarian) of the same compound?
Answer: 4.22 µM

Question: What about the TGI (OVCAR-8 ovarian) of the same compound?
Answer: 17 µM

Question: What about the GI50 (PC-3 prostate) of the same compound?
Answer: 3.17 µM

Question: And the TGI (PC-3 prostate)?
Answer: 13.9 µM

Question: What about the GI50 (RPMI-8226 leukemia) of the same compound?
Answer: 3.14 µM

Question: What about the TGI (RPMI-8226 leukemia) of the same compound?
Answer: > 100 µM

Question: What about the GI50 (RXF 393 renal) of the same compound?
Answer: 1.92 µM

Question: And the TGI (RXF 393 renal)?
Answer: 4.56 µM

Question: What about the GI50 (SF-268 CNS) of the same compound?
Answer: 5.16 µM

Question: What about the TGI (SF-268 CNS) of the same compound?
Answer: 20.3 µM

Question: What about the GI50 (SF-295 CNS) of the same compound?
Answer: 2.2 µM

Question: What about the TGI (SF-295 CNS) of the same compound?
Answer: 5.28 µM

Question: What about the GI50 (SF-539 CNS) of the same compound?
Answer: 2.76 µM

Question: And the TGI (SF-539 CNS)?
Answer: 8.43 µM

Question: And the GI50 (SK-MEL-2 melanoma)?
Answer: 3.45 µM

Question: And the TGI (SK-MEL-2 melanoma)?
Answer: 12.2 µM

Question: What about the GI50 (SK-MEL-28 melanoma) of the same compound?
Answer: 3.22 µM

Question: What about the TGI (SK-MEL-28 melanoma) of the same compound?
Answer: 11.8 µM

Question: And the GI50 (SK-MEL-5 melanoma)?
Answer: 1.87 µM

Question: What about the TGI (SK-MEL-5 melanoma) of the same compound?
Answer: 4.16 µM

Question: What about the GI50 (SK-OV-3 ovarian) of the same compound?
Answer: 12.2 µM

Question: And the TGI (SK-OV-3 ovarian)?
Answer: 27.8 µM

Question: And the GI50 (SN12C renal)?
Answer: 3.48 µM

Question: What about the TGI (SN12C renal) of the same compound?
Answer: 13 µM

Question: What about the GI50 (SNB-19 CNS) of the same compound?
Answer: 4.01 µM

Question: And the TGI (SNB-19 CNS)?
Answer: 14 µM

Question: What about the GI50 (SNB-75 CNS) of the same compound?
Answer: 3.27 µM

Question: What about the TGI (SNB-75 CNS) of the same compound?
Answer: 12.4 µM

Question: And the GI50 (SW-620 colon)?
Answer: 4.14 µM

Question: And the TGI (SW-620 colon)?
Answer: 15.2 µM

Question: What about the GI50 (T-47D breast) of the same compound?
Answer: 4.6 µM

Question: What about the TGI (T-47D breast) of the same compound?
Answer: 39.4 µM

Question: What about the GI50 (TK-10 renal) of the same compound?
Answer: 5.05 µM

Question: And the TGI (TK-10 renal)?
Answer: 19.3 µM

Question: What about the GI50 (U251 CNS) of the same compound?
Answer: 3.63 µM

Question: What about the TGI (U251 CNS) of the same compound?
Answer: 15.5 µM

Question: And the GI50 (UACC-257 melanoma)?
Answer: 10.5 µM

Question: What about the TGI (UACC-257 melanoma) of the same compound?
Answer: 28 µM

Question: What about the GI50 (UACC-62 melanoma) of the same compound?
Answer: 2.65 µM

Question: What about the TGI (UACC-62 melanoma) of the same compound?
Answer: 10 µM

Question: And the GI50 (UO-31 renal)?
Answer: 2.7 µM

Question: And the TGI (UO-31 renal)?
Answer: 13.5 µM
